Data reported in ChEMBL document CHEMBL2412992, “Fluorescent ligands for adenosine receptors” (Bioorg Med Chem Lett, 2013).
Blank lines part the entries; values can stand above or below the compound they belong to. Active and inactive are the calls of the source. No cut-off for these calls is given here.

Experiments:
Adenosine receptor A1 [1] = target: T1, Adenosine receptor A1 (Homo sapiens, UniProt P30542); assay: Displacement of [3H]DPCPX from adenosine A1 receptor in human cortical membranes; assay type: cell membranes
T1 sequence (P30542 whole entry): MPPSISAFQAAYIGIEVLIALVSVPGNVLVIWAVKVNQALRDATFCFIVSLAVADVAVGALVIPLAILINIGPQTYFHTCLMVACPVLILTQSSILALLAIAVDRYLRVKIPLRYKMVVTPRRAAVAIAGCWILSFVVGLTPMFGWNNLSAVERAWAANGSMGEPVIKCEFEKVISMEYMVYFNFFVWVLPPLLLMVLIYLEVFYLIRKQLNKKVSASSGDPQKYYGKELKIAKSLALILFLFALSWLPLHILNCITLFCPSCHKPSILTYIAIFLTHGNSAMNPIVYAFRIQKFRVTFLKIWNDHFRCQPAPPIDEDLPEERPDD

Adenosine receptor A3 [2] = target: T2, Adenosine receptor A3 (Homo sapiens, UniProt P0DMS8); assay type: cell-based, CHO
T2 sequence (P0DMS8 whole entry): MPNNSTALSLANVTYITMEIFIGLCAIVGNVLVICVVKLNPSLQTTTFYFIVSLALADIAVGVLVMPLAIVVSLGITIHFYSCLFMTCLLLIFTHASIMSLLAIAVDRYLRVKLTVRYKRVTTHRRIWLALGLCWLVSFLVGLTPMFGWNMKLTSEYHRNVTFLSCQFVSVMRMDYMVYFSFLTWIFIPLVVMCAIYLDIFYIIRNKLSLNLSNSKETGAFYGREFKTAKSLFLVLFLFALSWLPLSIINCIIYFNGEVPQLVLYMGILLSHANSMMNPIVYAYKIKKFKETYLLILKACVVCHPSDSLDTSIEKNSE

Adenosine receptor A2a [3] = target: T3, Adenosine receptor A2a (Homo sapiens, UniProt P29274); assay: Displacement of [3H]CGS21680 from adenosine A2A receptor in human striatal membranes; assay type: cell membranes, Striatum, Membrane
Adenosine receptor A1 [4] = target: T1, Adenosine receptor A1; assay: Antagonist activity at human adenosine A1 receptor expressed in CHO cells coexpressing cAMP response element assessed as inhibition of agonist-induced response by SPAP reporter gene assay in presence of forskolin; assay type: functional, cell-based
[5] = target: T4, Adenosine receptor A1 (Homo sapiens) (UniProt P30542); assay: Displacement of [3H]DPCPX from human adenosine A1 receptor expressed in CHO cells up to 0.1 mM after 2 hrs by scintillation counting analysis; assay type: cell-based
T4 sequence (whole entry): T1 sequence (P30542 whole entry)

[6] = target: T4, Adenosine receptor A1 (Homo sapiens); assay: Displacement of [3H]R-PIA from human adenosine A1 receptor expressed in CHO cells at 10 uM after 60 mins by […] analysis relative to control; assay type: cell-based
Adenosine receptor A3 [7] = target: T2, Adenosine receptor A3; assay type: cell-based, CHO; remark: listed apart in the source
Adenosine receptor A2a [8] = target: T3, Adenosine receptor A2a; assay: Displacement of [3H]CGS21680 from human adenosine A2A receptor expressed in HEK293 cells at 10 uM after 60 mins by […] analysis relative to control; assay type: cell-based
Adenosine receptor A1 [9] = target: T5, Adenosine receptor A1 (Rattus norvegicus, UniProt P25099); assay: Displacement of [3H]ADAC from adenosine A1 receptor in rat cerebral cortical membranes after 120 mins; assay type: cell membranes, Membrane
T5 sequence (P25099 whole entry): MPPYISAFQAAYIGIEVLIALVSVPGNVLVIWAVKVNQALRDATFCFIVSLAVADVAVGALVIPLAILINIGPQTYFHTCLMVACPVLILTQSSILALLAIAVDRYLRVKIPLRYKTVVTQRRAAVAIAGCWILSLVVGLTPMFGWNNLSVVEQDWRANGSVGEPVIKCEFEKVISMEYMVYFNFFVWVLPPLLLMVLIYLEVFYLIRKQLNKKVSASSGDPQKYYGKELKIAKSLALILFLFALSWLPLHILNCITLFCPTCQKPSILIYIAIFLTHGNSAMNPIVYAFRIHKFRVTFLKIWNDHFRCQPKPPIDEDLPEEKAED

Adenosine receptor A1 [10] = target: T6, Adenosine receptor A1 (Bos taurus, UniProt P28190); assay: Displacement of [3H]ADAC from adenosine A1 receptor in bovine cerebral cortical membranes after 120 mins; assay type: cell membranes
T6 sequence (P28190 whole entry): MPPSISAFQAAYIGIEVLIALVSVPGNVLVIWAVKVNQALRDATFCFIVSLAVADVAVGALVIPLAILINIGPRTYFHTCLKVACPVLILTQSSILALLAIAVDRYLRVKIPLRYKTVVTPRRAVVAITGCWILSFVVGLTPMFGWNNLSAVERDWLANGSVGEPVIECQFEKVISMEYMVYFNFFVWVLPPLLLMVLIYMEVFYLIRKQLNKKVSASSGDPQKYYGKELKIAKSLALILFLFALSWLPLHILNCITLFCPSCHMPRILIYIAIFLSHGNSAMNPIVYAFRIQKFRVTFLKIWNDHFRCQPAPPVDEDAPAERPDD

Adenosine receptor A1 [11] = target: T1, Adenosine receptor A1; assay: Displacement of [3H]R-PIA from human adenosine A1 receptor expressed in CHO cells after 60 mins by […] analysis; assay type: cell-based
Adenosine receptor A2a [12] = target: T3, Adenosine receptor A2a; assay: Displacement of [3H]CGS21680 from human adenosine A2A receptor expressed in HEK293 cells after 60 mins by […] analysis; assay type: cell-based
Adenosine receptor A2a [13] = target: T3, Adenosine receptor A2a; assay: Competitive binding affinity to human adenosine A2A receptor expressed in HEK293 cells after 60 mins by fluorescence polarization assay in presence of MRS5346
[14] = target: T4, Adenosine receptor A1 (Homo sapiens); assay: Competitive antagonist activity at GFP-tagged adenosine A1 receptor (unknown origin) expressed in CHO cells assessed as stimulation of inositol phosphate accumulation by scintillation counting analysis; assay type: functional, cell-based
[15] = target: T4, Adenosine receptor A1 (Homo sapiens); assay: Competitive antagonist activity at GFP-tagged adenosine A1 receptor (unknown origin) expressed in CHO cells assessed as inhibition of forskolin-stimulated cAMP accumulation by liquid scintillation counting analysis; assay type: functional, cell-based

T3 sequence (P29274 whole entry): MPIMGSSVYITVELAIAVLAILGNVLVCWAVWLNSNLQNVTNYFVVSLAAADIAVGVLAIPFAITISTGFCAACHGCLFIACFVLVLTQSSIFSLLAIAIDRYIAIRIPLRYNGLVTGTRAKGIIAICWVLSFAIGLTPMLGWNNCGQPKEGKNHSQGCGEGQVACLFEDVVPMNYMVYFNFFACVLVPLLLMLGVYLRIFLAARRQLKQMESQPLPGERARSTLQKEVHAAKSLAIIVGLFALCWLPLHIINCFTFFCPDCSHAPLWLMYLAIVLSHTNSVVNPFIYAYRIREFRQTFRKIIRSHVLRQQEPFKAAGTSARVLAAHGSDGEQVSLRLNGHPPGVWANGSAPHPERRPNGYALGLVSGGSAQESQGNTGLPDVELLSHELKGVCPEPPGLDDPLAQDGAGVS

SMILES: CCNC(=O)[C@H]1O[C@@H](n2cnc3c(NCCCCNc4ccc([N+](=O)[O-])c5nonc45)ncnc32)[C@H](O)[C@@H]1O
Ki (Adenosine receptor A1 [1]): > 10 µM
Ki (Adenosine receptor A3 [2]): 0.389 µM
Ki (Adenosine receptor A2a [3]): > 10 µM

SMILES: CCNC(=O)[C@H]1O[C@@H](n2cnc3c(NCCCCNC(=O)CCCCCCCNS(=O)(=O)c4cccc5c(N(C)C)cccc45)ncnc32)[C@H](O)[C@@H]1O
Activity [5]: inactive

SMILES: Cn1cc2c(nc(NCCOCCOCCNC(=S)Nc3ccc(C4c5ccc(O)cc5OC5=CC(=O)C=CC54)c(C(=O)O)c3)n3nc(-c4ccco4)nc23)n1 (centres undefined)
inhibition [6]: 0%
Ki (Adenosine receptor A3 [7]): 9.55 µM
inhibition (Adenosine receptor A2a [8]): 30%

SMILES: O=C1C=CC2C(=C1)Oc1cc(O)ccc1C2c1ccc(NC(=S)NCCNC(=O)Cc2ccc(NC(=O)Cc3ccc(Nc4ncnc5c4ncn5[C@@H]4O[C@H](CO)[C@@H](O)[C@H]4O)cc3)cc2)cc1C(=O)O (some centres undefined)
Ki (Adenosine receptor A1 [9]): 0.00724 µM
Ki (Adenosine receptor A1 [10]): 0.00288 µM

SMILES: Cn1cc2c(nc(NNC(=S)Nc3ccc(C4c5ccc(O)cc5OC5=CC(=O)C=CC54)c(C(=O)O)c3)n3nc(-c4ccco4)nc23)n1 (centres undefined)
Ki (Adenosine receptor A1 [11]): 9.55 µM
Ki (Adenosine receptor A3 [7]): 0.794 µM
Ki (Adenosine receptor A2a [12]): 0.933 µM

SMILES: O=C(Cc1ccc(NC(=O)Cc2ccc(Nc3ncnc4c3ncn4[C@@H]3O[C@H](CO)[C@@H](O)[C@H]3O)cc2)cc1)NCCNc1ccc([N+](=O)[O-])c2nonc12
Ki (Adenosine receptor A1 [9]): 0.00437 µM
Ki (Adenosine receptor A1 [10]): 0.00162 µM

SMILES: OC[C@H]1O[C@@H](n2cnc3c(NC4CCCC4)ncnc32)[C@H](O)[C@@H]1O [N6-CYCLOPENTYLADENOSINE]
Ki (Adenosine receptor A2a [13]): 0.814 µM

SMILES: Cn1cc2c(nc(NCCCCNC(=S)Nc3ccc(C4c5ccc(O)cc5OC5=CC(=O)C=CC54)c(C(=O)O)c3)n3nc(-c4ccco4)nc23)n1 (centres undefined)
inhibition [6]: 7%
Ki (Adenosine receptor A3 [7]): 0.724 µM
Ki (Adenosine receptor A2a [12]): 0.468 µM

SMILES: CCNC(=O)[C@H]1O[C@@H](n2cnc3c(NCCCCCCCCCCNc4ccc([N+](=O)[O-])c5nonc45)ncnc32)[C@H](O)[C@@H]1O
Ki (Adenosine receptor A1 [1]): 6.46 µM
Ki (Adenosine receptor A3 [2]): 0.0282 µM
Ki (Adenosine receptor A2a [3]): 6.17 µM

The next lines start with the values.

Kd (Adenosine receptor A1 [4]): 0.0162 µM
SMILES: CCNC(=O)[C@H]1O[C@@H](n2cnc3c(NCCCCNC(=O)COc4ccc(/C=C/C5=[N+]6C(=Cc7ccc(-c8cccs8)n7[B-]6(F)F)C=C5)cc4)ncnc32)[C@H](O)[C@@H]1O

Kd (Adenosine receptor A1 [4]): 0.0178 µM
SMILES: CCNC(=O)[C@H]1O[C@@H](n2cnc3c(NCCOCCOCCNC(=O)COc4ccc(/C=C/C5=[N+]6C(=Cc7ccc(-c8cccs8)n7[B-]6(F)F)C=C5)cc4)ncnc32)[C@H](O)[C@@H]1O

Activity [5]: inactive
SMILES: CCNC(=O)[C@H]1O[C@@H](n2cnc3c(NCCCCNC(=O)CCC4=[N+]5C(=Cc6c(C)cc(C)n6[B-]5(F)F)C=C4)ncnc32)[C@H](O)[C@@H]1O

Ki (Adenosine receptor A1 [9]): 0.126 µM
Ki (Adenosine receptor A1 [10]): 0.00933 µM
SMILES: CCCn1c(=O)c2[nH]c(-c3ccc(OCC(=O)NCCNC(=S)Nc4ccc(C5c6ccc(O)cc6OC6=CC(=O)C=CC65)c(C(=O)O)c4)cc3)nc2n(CCC)c1=O (centres undefined)

Activity [5]: inactive
SMILES: CCCn1c(=O)c2[nH]c(-c3ccc(OCC(=O)NCCNC(=O)CCCCCCC(=O)NCCNC(=O)CCC4=[N+]5C(=Cc6c(C)cc(C)n6[B-]5(F)F)C=C4)cc3)nc2n(CCC)c1=O

pKb [14]: 6.5
pKb [15]: 6.4
SMILES: CCCn1c(=O)c2[nH]c(-c3ccc(OCC(=O)NCCNC(=O)CCCCCNC(=O)COc4ccc(/C=C/C5=[N+]6C(=Cc7ccc(-c8cccs8)n7[B-]6(F)F)C=C5)cc4)cc3)nc2n(CCC)c1=O
